In patent US20030040476A1, “EAG gene” (priority 1999, published 2003):

Tests used:
[1] = target: T1, hEAG2 channel (Homo sapiens, UniProt Q8NCM2); experiment: Magnesium dependence of hEAG2 activation, two-electrode voltage clamp in Xenopus oocytes; type: cell-based
T1 construct: expressed in transfected cells; host or cells: Xenopus oocytes (stage V-VI), injected with synthetic RNA
T1 sequence (Q8NCM2 1-988): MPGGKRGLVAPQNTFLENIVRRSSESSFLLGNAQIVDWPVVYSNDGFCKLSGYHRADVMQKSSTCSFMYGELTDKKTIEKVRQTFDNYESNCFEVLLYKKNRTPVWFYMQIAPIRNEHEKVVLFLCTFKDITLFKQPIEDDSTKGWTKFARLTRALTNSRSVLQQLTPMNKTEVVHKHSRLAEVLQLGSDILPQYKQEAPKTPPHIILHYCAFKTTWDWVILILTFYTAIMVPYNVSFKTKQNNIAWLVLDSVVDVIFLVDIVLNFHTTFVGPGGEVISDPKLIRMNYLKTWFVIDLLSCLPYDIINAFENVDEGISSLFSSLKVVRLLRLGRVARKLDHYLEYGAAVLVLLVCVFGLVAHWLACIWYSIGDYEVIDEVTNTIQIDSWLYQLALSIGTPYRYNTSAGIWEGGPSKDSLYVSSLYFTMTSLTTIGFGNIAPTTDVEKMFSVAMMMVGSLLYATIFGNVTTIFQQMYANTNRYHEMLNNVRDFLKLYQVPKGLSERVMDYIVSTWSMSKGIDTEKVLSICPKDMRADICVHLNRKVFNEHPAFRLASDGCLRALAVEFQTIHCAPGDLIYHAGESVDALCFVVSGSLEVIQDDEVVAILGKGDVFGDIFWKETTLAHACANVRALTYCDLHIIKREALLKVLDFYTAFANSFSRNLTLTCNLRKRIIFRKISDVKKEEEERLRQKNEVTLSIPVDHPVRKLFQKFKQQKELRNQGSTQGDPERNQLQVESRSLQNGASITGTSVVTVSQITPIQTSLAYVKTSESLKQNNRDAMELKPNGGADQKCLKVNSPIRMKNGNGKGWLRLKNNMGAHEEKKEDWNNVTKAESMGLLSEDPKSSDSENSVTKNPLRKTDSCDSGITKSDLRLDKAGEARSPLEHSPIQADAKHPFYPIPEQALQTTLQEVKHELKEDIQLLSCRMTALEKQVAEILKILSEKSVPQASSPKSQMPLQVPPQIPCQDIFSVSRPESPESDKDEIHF
Experimental: (§1) For Xenopus oocyte expression, the cDNA was cloned into a suitable vector containing the translation initiation sequences and the polyadenylation sequence of Xenopus b-globin. This optimizes the expression in oocytes. The template was prepared by linearization of the construct, and RNA was synthesized using the T7 promotor. The synthetic RNA was injected into stage V-VI oocytes using standard techniques (approximately 50 ng/oocyte). The currents expressed were then measured 48-96 hours after the injection using two-electrode voltage clamp.
The depencence on the holding potential of the time constant of activation was determined using a conditioning potential between −150 and −60 mV during 5 s prior to the test pulse. The time required to achieve 80% of the maximal amplitude in the test pulse was then plotted against the conditioned potential, and fitted with a Boltzmann distribution. Extracellular magnesium is known to slow down the activation of EAG1. We determined the magnesium dependence of hEAG2 using the protocol descibed above in the presence of different external magnesium concentrations. The value of Vhalf obtained from the fit was plotted against the magnesium concentration, giving a semimaximal effect of extracellular magnesium at 80 μM (FIG. 7).

[2] = tested on: hEAG2 channel; experiment: Modulation of hEAG2 current during progesterone-induced G2-M progression in Xenopus oocytes; type: cell-based, human; conditions: oocytes treated with 20 μg/ml progesterone while recording; homogenous at all voltages tested
Experimental: as §1
The modulation of hEAG2 during cell cycle was determined using the natural cell cycle arrest of oocytes in the G2 stage of the first meiotic division. The progression of the cycle through the G2-M boundary is triggered by progesterone. We have treated the oocytes with 20 μg/ml progesterone while recording the hEAG2 currents. […] Importantly, the reduction was homogenous at all voltages tested (as opposite to what happens with EAG1).

| SMILES | EC50 ([1]; hEAG2 in Xenopus oocytes, conditioning potential -150 to -60 mV for 5 s before test pulse, extracellular magnesium, read-out: apparent EC50 for the effect of magnesium (Vhalf of activation time versus Mg^2+ concentration)) [µM] | slowing of activation in 2 mM Mg^2+ versus 200 μM Mg^2+ ([1]; prepulse potential -60 mV, 2 mM versus 200 μM Mg^2+) | effect on hEAG2 current amplitude [2] |
| --- | --- | --- | --- |
| [Mg+2] [magnesium] | 80 | three times slower | – |
| CC(=O)[C@H]1CC[C@H]2[C@@H]3CCC4=CC(=O)CC[C@]4(C)[C@H]3CC[C@]12C [progesterone] | – | – | reduction of the current with time |
